Source: patent US8192962B2, “Processes for detecting toxic substances” (Daikin Industries, Ltd., priority 2001, dated 2012)

System: Mitochondria-located protein genes
Assay: DNA chip mRNA expression in yeast, mitochondria-located protein genes (Table 2)
Type: cell-based, Saccharomyces cerevisiae S288C
Details: cells incubated two hours with the chemical substance
Summary of the method: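 Values are treated/untreated fluorescence ratios from a whole-genome yeast DNA chip hybridized over 12 hours at 65° C with Cy3- or Cy5-labelled cDNA from poly(A) mRNA. Log-phase S288C yeast in YPD at 25° C had received a single toxic chemical for two hours, dosed to slow growth without killing.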

Compound: N#Cc1c(Cl)c(Cl)c(Cl)c(C#N)c1Cl [(9), 2,4,5,6-tetrachloro-1,3-benzenedicarbonitrile]
- The level of expressed mRNA in the presence of chemical substance/The level of expressed mRNA in the absence of chemical substance (yeast gene YJR121W): 0.8
- The level of expressed mRNA in the presence of chemical substance/The level of expressed mRNA in the absence of chemical substance (yeast gene YKL003C): 1.5
- The level of expressed mRNA in the presence of chemical substance/The level of expressed mRNA in the absence of chemical substance (yeast gene YKL016C): 1.3
- The level of expressed mRNA in the presence of chemical substance/The level of expressed mRNA in the absence of chemical substance (yeast gene YKL141W): 0.8
- The level of expressed mRNA in the presence of chemical substance/The level of expressed mRNA in the absence of chemical substance (yeast gene YKL142W): 5.8
- The level of expressed mRNA in the presence of chemical substance/The level of expressed mRNA in the absence of chemical substance (yeast gene YKL148C): 1.7
- The level of expressed mRNA in the presence of chemical substance/The level of expressed mRNA in the absence of chemical substance (yeast gene YKL170W): 0.9
- The level of expressed mRNA in the presence of chemical substance/The level of expressed mRNA in the absence of chemical substance (yeast gene YKL194C): 1.3
- The level of expressed mRNA in the presence of chemical substance/The level of expressed mRNA in the absence of chemical substance (yeast gene YKR066C): 0.7
- The level of expressed mRNA in the presence of chemical substance/The level of expressed mRNA in the absence of chemical substance (yeast gene YLL041C): 0.7
- The level of expressed mRNA in the presence of chemical substance/The level of expressed mRNA in the absence of chemical substance (yeast gene YLR038C): 0.4
- The level of expressed mRNA in the presence of chemical substance/The level of expressed mRNA in the absence of chemical substance (yeast gene YLR259C): 1.8
- The level of expressed mRNA in the presence of chemical substance/The level of expressed mRNA in the absence of chemical substance (yeast gene YLR295C): 1.4
- The level of expressed mRNA in the presence of chemical substance/The level of expressed mRNA in the absence of chemical substance (yeast gene YLR304C): 0.1
- The level of expressed mRNA in the presence of chemical substance/The level of expressed mRNA in the absence of chemical substance (yeast gene YLR348C): 2.1
- The level of expressed mRNA in the presence of chemical substance/The level of expressed mRNA in the absence of chemical substance (yeast gene YLR395C): 1.0
- The level of expressed mRNA in the presence of chemical substance/The level of expressed mRNA in the absence of chemical substance (yeast gene YML054C): 4.1
- The level of expressed mRNA in the presence of chemical substance/The level of expressed mRNA in the absence of chemical substance (yeast gene YML120C): 1.3
- The level of expressed mRNA in the presence of chemical substance/The level of expressed mRNA in the absence of chemical substance (yeast gene YML129C): 1.4
- The level of expressed mRNA in the presence of chemical substance/The level of expressed mRNA in the absence of chemical substance (yeast gene YMR023C): 1.5
- The level of expressed mRNA in the presence of chemical substance/The level of expressed mRNA in the absence of chemical substance (yeast gene YMR035W): 1.7
- The level of expressed mRNA in the presence of chemical substance/The level of expressed mRNA in the absence of chemical substance (yeast gene YMR083W): 0.4
- The level of expressed mRNA in the presence of chemical substance/The level of expressed mRNA in the absence of chemical substance (yeast gene YMR089C): 5.6
- The level of expressed mRNA in the presence of chemical substance/The level of expressed mRNA in the absence of chemical substance (yeast gene YMR152W): 2.7
- The level of expressed mRNA in the presence of chemical substance/The level of expressed mRNA in the absence of chemical substance (yeast gene YMR203W): 0.7
- The level of expressed mRNA in the presence of chemical substance/The level of expressed mRNA in the absence of chemical substance (yeast gene YMR267W): 0.4
- The level of expressed mRNA in the presence of chemical substance/The level of expressed mRNA in the absence of chemical substance (yeast gene YNL055C): 1.1
- The level of expressed mRNA in the presence of chemical substance/The level of expressed mRNA in the absence of chemical substance (yeast gene YNL071W): 1.1
- The level of expressed mRNA in the presence of chemical substance/The level of expressed mRNA in the absence of chemical substance (yeast gene YNL073W): 0.9
- The level of expressed mRNA in the presence of chemical substance/The level of expressed mRNA in the absence of chemical substance (yeast gene YNL104C): 1.1
- The level of expressed mRNA in the presence of chemical substance/The level of expressed mRNA in the absence of chemical substance (yeast gene YNL256W): 0.8
- The level of expressed mRNA in the presence of chemical substance/The level of expressed mRNA in the absence of chemical substance (yeast gene YOL096C): 1.3
- The level of expressed mRNA in the presence of chemical substance/The level of expressed mRNA in the absence of chemical substance (yeast gene YOR020C): 5.8
- The level of expressed mRNA in the presence of chemical substance/The level of expressed mRNA in the absence of chemical substance (yeast gene YOR037W): 1.3
- The level of expressed mRNA in the presence of chemical substance/The level of expressed mRNA in the absence of chemical substance (yeast gene YOR100C): 2.0
- The level of expressed mRNA in the presence of chemical substance/The level of expressed mRNA in the absence of chemical substance (yeast gene YOR130C): 2.0
- The level of expressed mRNA in the presence of chemical substance/The level of expressed mRNA in the absence of chemical substance (yeast gene YOR142W): 1.1
- The level of expressed mRNA in the presence of chemical substance/The level of expressed mRNA in the absence of chemical substance (yeast gene YOR150W): 0.8
- The level of expressed mRNA in the presence of chemical substance/The level of expressed mRNA in the absence of chemical substance (yeast gene YOR176W): 1.0
- The level of expressed mRNA in the presence of chemical substance/The level of expressed mRNA in the absence of chemical substance (yeast gene YOR187W): 0.6
- The level of expressed mRNA in the presence of chemical substance/The level of expressed mRNA in the absence of chemical substance (yeast gene YOR316C): 1.6
- The level of expressed mRNA in the presence of chemical substance/The level of expressed mRNA in the absence of chemical substance (yeast gene YPL040C): 0.2
- The level of expressed mRNA in the presence of chemical substance/The level of expressed mRNA in the absence of chemical substance (yeast gene YPL134C): 0.6
- The level of expressed mRNA in the presence of chemical substance/The level of expressed mRNA in the absence of chemical substance (yeast gene YPL135W): 0.5
- The level of expressed mRNA in the presence of chemical substance/The level of expressed mRNA in the absence of chemical substance (yeast gene YPL215W): 1.7
- The level of expressed mRNA in the presence of chemical substance/The level of expressed mRNA in the absence of chemical substance (yeast gene YPL262W): 1.4
- The level of expressed mRNA in the presence of chemical substance/The level of expressed mRNA in the absence of chemical substance (yeast gene YPR024W): 3.0
- The level of expressed mRNA in the presence of chemical substance/The level of expressed mRNA in the absence of chemical substance (yeast gene YPR037C): 1.5
- The level of expressed mRNA in the presence of chemical substance/The level of expressed mRNA in the absence of chemical substance (yeast gene YPR047W): 2.1
- The level of expressed mRNA in the presence of chemical substance/The level of expressed mRNA in the absence of chemical substance (yeast gene YPR134W): 1.8
